# Laboratory results reported in patent publication US9370541B2, “Extract of the above-ground portions of gynandropsis gynandra or cleome gynandra, and cosmetic, dermatological or pharmaceutical compositions including same” (LABORATOIRES EXPANSCIENCE, priority 2010, dated 2016).
# How the values were obtained:
# Normal human adipocytes = experiment: Lipogenesis in adipocytes ([14C]-acetate incorporation); format: cell-based; conditions: 20 μM of cerulenin
# Description: Normal human adipocytes were incubated for 1 hour in the presence of the extract of Gynandropsis gynandra (GG) at a concentration of 0.02% (w/v of active material) or the reference (20 μM of cerulenin). After incubation, the radioactive label [^14C]-acetate was added and the samples were incubated overnight.
# At the end of incubation, the lipids were extracted and the radioactivity incorporated (corresponding to the lipogenesis) was measured by liquid scintillation.
# (§1) The results were analyzed statistically by a Student's t-test.
# prostaglandin E2 (PGE2) = experiment: Production of PGE2 by PMA-stimulated keratinocytes (NCTC-2544), ELISA; format: cell-based, Human; conditions: 10^−6 M Indomethacin, 0.1 μg/ml PMA 24 hours
# [1] = system: Normal human keratinocytes; experiment: Keratinocyte migration after artificial wound; format: cell-based; conditions: 10 ng/ml of EGF
# Description: An artificial wound was prepared on a monolayer of normal human keratinocytes.
# At 0, 24, 48 and 72 hours, keratinocyte migration was monitored by microphotography and was quantified by measuring the surface area of the wound.
# as §1
# [2] = system: Normal human epidermal melanocytes; experiment: Melanin production by melanocytes; format: cell-based; conditions: 10^−7 M NDP-MSH alone (stimulated control); 240 hours
# Description: After incubation, melanin was extracted from the cells and was quantified by spectrophotometry.
# as §1
# Mastocytes = experiment: Release of histamine by mastocytes stimulated by substance P, ELISA; format: cell-based; conditions: 10 nM Calcium; 10 μM substance P, 15 minutes
# Description: Mastocytes were preincubated for 30 minutes in the presence of the extract of Gynandropsis gynandra (GG) at a concentration of 0.08% (w/v of active material) or 10 Mm of calcium (reference inhibitor of histamine release).
# The mastocytes were then stimulated with 10 μM of substance P for 15 minutes. At the end of incubation, the histamine released was quantified by ELISA.
# as §1
# [3] = system: Normal human keratinocytes; experiment: Production of ROS in keratinocytes treated with H2O2 (H2DCF-DA probe); format: cell-based; conditions: 10 μg/ml vitamin C, 24 hours, 100 μM H2O2, 20 minutes
# Description: The keratinocytes were then stimulated with 100 μM of hydrogen peroxide (H2O2) for 20 minutes. The production of reactive oxygen species (ROS) was evaluated by measuring fluorescence. The results were analyzed statistically by a Student's t-test.
# [4] = system: Cells of the Jurkat cell line; experiment: UV-induced lipid peroxidation (flow cytometry); format: cell-based; conditions: 100 μM BHT; UVA+B irradiation
# Description: Cells of the Jurkat cell line were preincubated for 45 minutes in the presence of the extract of Gynandropsis gynandra (GG) at a concentration of 0.02% (w/v of active material) or 100 μM of BHT (reference) and in the presence of the fluorescent probe 011-fluorine, specific for lipid peroxidation.
# The cells were then irradiated by UVA+B and then incubated for 30 minutes in the presence of GG or BHT.
# At the end of incubation, the quantity of lipid peroxides was evaluated by a flow cytometry analysis of fluorescence intensity (inversely proportional to oxidation).
# as §1
# interleukin 8 (IL8) = experiment: Production of IL8 by PMA-stimulated keratinocytes (NCTC-2544), ELISA; format: cell-based, Human; conditions: 10^−7 M Dexamethasone, 0.1 μg/ml PMA 24 hours
# Description: At the end of the treatment, the quantities of interleukin 8 (IL8) and prostaglandin E2 (PGE2) secreted were measured by ELISA in the culture supernatants. The results were analyzed statistically by a Student's t-test.
compound,measurement,setting,value
C/C=C/C/C=C/CCC(=O)[C@H]1O[C@H]1C(N)=O [cerulenin],Incorporation of acetate (cpm),Normal human adipocytes,14934 ± 671 cpm
same,inhibition at 20 µM,"Normal human adipocytes; Homo sapiens, Adipocyte",55%
"COc1ccc2c(c1)c(CC(=O)O)c(C)n2C(=O)c1ccc(Cl)cc1 [Indomethacin, indomethacin]",PGE2,prostaglandin E2 (PGE2),0.039 ± 0.0 ng/mL
same,inhibition at 1 µM,"prostaglandin E2 (PGE2); Homo sapiens, NCTC-2544",100%
EGF,Migration area (percent of wound covered),[1]; 48 h,99 (p < 0.001) percent of wound covered
same,Migration area (percent of wound covered),[1]; 72 h,100 (p < 0.001) percent of wound covered
NDP-MSH,Melanin (μl/ml),[2],27.1 ± 0.9 μl/ml
same,Stimulation of melanin production,[2],+108% p < 0.001
"[Ca+2] [Calcium, calcium]",Histamine,Mastocytes,21.8 ± 1.0 ng/mL
same,Inhibition of histamine release,Mastocytes,−85% p < 0.01
O=C1O[C@H]([C@@H](O)CO)C(O)=C1O [vitamin C],ROS (fluorescence units),[3],992.83 ± 93.96 fluorescence units
same,inhibition at 10 µg/mL,"[3]; Homo sapiens, Keratinocyte",33%
Cc1cc(C(C)(C)C)c(O)c(C(C)(C)C)c1 [BHT],Lipid peroxides (% of irradiated control),[4],64 % of irradiated control
same,Protection (%),[4],49% p < 0.01
"C[C@@H]1C[C@H]2[C@@H]3CCC4=CC(=O)C=C[C@]4(C)[C@@]3(F)[C@@H](O)C[C@]2(C)[C@@]1(O)C(=O)CO [Dexamethasone, dexamethasone]",IL8,interleukin 8 (IL8),7.4 ± 0.8 ng/mL
same,inhibition at 0.1 µM,"interleukin 8 (IL8); Homo sapiens, NCTC-2544",85%
